Reference: patent US8741854B2, “Compositions and methods for feeding poultry” (Bioenergy, Inc., priority 2009, dated 2014)

Test system: male chicks of a commercial breed, "Cobb 500"
Experiment: D-ribose supplementation of broiler chicks raised on a challenged rapid growth regimen
Assay type: in vivo, chicken (broiler chicks)
Conditions: D-ribose in drinking water, about 200 mg/kg body weight/day

O=C[C@H](O)[C@H](O)[C@H](O)CO [D-ribose]
observed cardiomyopathic incidences (days 0 to 43, challenged environment, approximately 5200 feet elevation, control 27.6%): 15.1% | average weight and feed conversion versus control (birds weighed days 35 and 43, FIG. 1): slightly better in the control group, but the differences were not statistically significant
